Test results reported in publication PMC10564941, “A morpheein equilibrium regulates catalysis in phosphoserine phosphatase SerB2 from Mycobacterium tuberculosis” (Communications Biology, 2023).

Experiments:
[1] = molecular target: T1, MtSerB2 (phosphoserine phosphatase SerB2) (Mycobacterium tuberculosis, UniProt O53289); assay: steady-state kinetics, malachite green phosphatase assay; SEC-UV/SAXS dimer-to-trimer shift; format: biochemical
T1 construct: full-length dimer fraction, His-tag cleaved

[2] = test system: N[C@@H](COP(=O)(O)O)C(=O)O; assay: purified protein; details: Mg2+ ([…] MgCl2 in assay) active site; uncompetitive substrate inhibition

T1 sequence (O53289 whole entry): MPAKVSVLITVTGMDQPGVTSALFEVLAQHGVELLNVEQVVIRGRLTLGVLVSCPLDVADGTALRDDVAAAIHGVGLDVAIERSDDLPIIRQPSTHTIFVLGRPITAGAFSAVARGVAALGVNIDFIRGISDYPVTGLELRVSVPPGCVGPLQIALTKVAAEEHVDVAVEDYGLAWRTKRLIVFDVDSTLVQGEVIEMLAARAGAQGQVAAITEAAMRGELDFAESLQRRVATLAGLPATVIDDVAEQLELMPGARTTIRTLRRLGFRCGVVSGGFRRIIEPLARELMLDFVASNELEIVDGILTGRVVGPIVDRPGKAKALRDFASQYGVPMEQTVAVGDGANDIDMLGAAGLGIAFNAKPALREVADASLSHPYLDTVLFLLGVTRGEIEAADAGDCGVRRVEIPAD

N[C@@H](CO)C(=O)O [L-Ser]
Ki [1]: 22 ± 5.3 µM

MtSerB2 (phosphoserine phosphatase SerB2) (Mycobacterium tuberculosis H37Rv)
Km [2]: 480 ± 170 µM
